Results as given in US20180305334A1, “COMPOUNDS, COMPOSITIONS AND METHODS OF USE AGAINST STRESS GRANULES” (Aquinnah Pharmaceuticals, Inc., priority 2015, published 2018).

test system: TDP-43 aggregation in PC12 cells stably expressing TDP-43^Q331K::eGFP; test: In vitro efficacy assay, TDP-43 aggregation concentration-response; assay type: cell-based; details: Rattus norvegicus, PC-12, inhibition of TDP-43 aggregation; PC12 TDP-43^Q331K::eGFP, 1 hour pre-treatment, 15 μM sodium arsenite for 23 hours; 10-point dose response
Procedure: Exemplary compounds of the invention were evaluated for efficacy in inhibiting TDP-43 inclusions using a concentration-response assay. Briefly, PC12 cells stably expressing a GFP-tagged mutant form of TDP-43 (TDP-43^Q331K::eGFP) were pre-treated for 1 hour with exemplary compounds and stressed with 15 μM sodium arsenite for 23 hours to induce TDP-43 aggregation. The inhibitory effect on TDP-43 aggregation was measured using fluorescence microscopy. The ratio of cells with TDP-43 aggregates was calculated based on the total number of cells with detectable GFP expression.

Row | Structure (SMILES) | IC50
1 | CCN(CC1CCN(CC(F)(F)c2cccc(OC)c2)CC1)C(=O)c1cc2ccccc2[nH]1 [Compound 412] | 1.5 to 4 µM
2 | COc1cccc(CCNCCNC(=O)c2cc3ccccc3[nH]2)c1 [Compound 221] | 1.5 to 4 µM
3 | CCN(CC1CCCN(CCc2ccc3c(c2)OCC3)C1)C(=O)c1cc2ccccc2[nH]1 (centres unmarked) [Compound 145] | 1.5 to 4 µM
4 | CC(C)N(CC1CCN(Cc2cccc(F)c2)CC1)C(=O)c1cc2ccccc2[nH]1 [compound 277] | > 10 µM
5 | CCN(CC1CCCN(Cc2cc3ccccc3o2)C1)C(=O)c1cc2cc(OC)ccc2[nH]1 (centres unmarked) [Compound 203] | 1.5 to 4 µM
6 | CCN(CC1CCNCC1)C(=O)c1cc2cc(OC(F)(F)F)ccc2[nH]1 [compound 401] | 4 to 7 µM
7 | CCN(CC1CCN(Cc2cccc(OC(F)(F)F)c2)CC1)C(=O)c1cc2cc(OC(F)(F)F)ccc2[nH]1 [compound 308] | > 10 µM
8 | CCN(CC1CCN(CCc2cccc(OC)c2)C1)C(=O)c1cc2ccccc2[nH]1 (centres unmarked) [Compound 223] | 1.5 to 4 µM
9 | CCN(CC1CCCN(Cc2ccc(Cl)cc2)C1)C(=O)c1cc2ccc(C)cc2[nH]1 (centres unmarked) [Compound 155] | 1.5 to 4 µM
10 | O=C(NCC1CCNCC1)c1cc2ccccc2[nH]1 [Compound 264] | 1.5 to 4 µM
11 | CCN(CC1CCCN(CCc2cccc(OC)c2)C1)C(=O)c1ccccn1 (centres unmarked) [Compound 236] | > 10 µM
12 | CCN(CC1CCCN(Cc2ccc(OC)cc2)C1)C(=O)c1cc2cc(OCc3ccccc3)ccc2[nH]1 (centres unmarked) [Compound 174] | 1.5 to 4 µM
13 | CCN(CC1CCCN(Cc2ccc(OC)cc2)C1)C(=O)c1cc2c(F)cccc2[nH]1 (centres unmarked) [Compound 166] | > 10 µM
14 | CCN(CC1CCN(C2CCc3ccccc3C2)CC1)C(=O)c1cc2ccccc2[nH]1 (centres unmarked) [Compound 211] | 1.5 to 4 µM
15 | O=C(NCC1CCN(Cc2ccccc2Cl)CC1)c1cc2ccccc2[nH]1 [compound 293] | > 10 µM
16 | CCN(CC1CCCN(Cc2ccc(Cl)cc2)C1)C(=O)c1cc2cccc(F)c2[nH]1 (centres unmarked) [Compound 157] | > 10 µM
17 | CCN(CC1CCN(Cc2ccc(Cl)cc2)CC1)C(=O)c1cc2ccccc2[nH]1 [compound 289] | > 10 µM
18 | CCN(CC1CCCN(Cc2ccc(OC)cc2)C1)C(=O)c1cc2ccc(C)cc2[nH]1 (centres unmarked) [Compound 156] | 1.5 to 4 µM
19 | CCN(CC1CCN(Cc2cccc(F)c2)CC1)C(=O)c1cc2ccccc2[nH]1 [Compound 252] | > 10 µM
20 | CCN(CC1CCCN(CC(C)(C)c2cccc(OC(F)(F)F)c2)C1)C(=O)c1cc2cc(OC(F)(F)F)ccc2[nH]1 (centres unmarked) [Compound 407] | > 10 µM
21 | CCN(CC1CCN(C(C)(C)Cc2cccc(F)c2F)CC1)C(=O)c1cc2ccccc2[nH]1 [Compound 342] | > 10 µM
22 | CCN(CC1CCN(Cc2cccc(OC(F)F)c2)CC1)C(=O)c1cc2cc(OC(F)F)ccc2[nH]1 [compound 310] | 4 to 7 µM
23 | CN(CC1CCN(Cc2ccccc2F)CC1)C(=O)c1cc2ccccc2[nH]1 [compound 258] | > 10 µM
24 | O=C(NCC1CCN(Cc2cccc(F)c2)CC1)c1cc2ccccc2[nH]1 [compound 270] | > 10 µM

Row | Structure (SMILES) | IC50
25 | CCN(CC1CCNCC1)C(=O)c1cc2cc(OC(F)F)ccc2[nH]1 [compound 402] | > 10 µM
26 | CCN(CC1CCN(Cc2cccc(OC)c2)CC1)C(=O)c1cc2ccccc2[nH]1 [compound 267] | 1.5 to 4 µM
27 | COc1cccc(CCN2CCCC(CN(CC3CCCCC3)C(=O)c3cc4ccccc4[nH]3)C2)c1 (centres unmarked) [Compound 220] | > 10 µM
28 | CCN(CC1CCN(C2CCc3ccccc32)CC1)C(=O)c1cc2ccccc2[nH]1 (centres unmarked) [Compound 328] | 4 to 7 µM
29 | CCN(CC1CCCN(S(=O)(=O)c2ccc(OC)cc2)C1)C(=O)c1cc2ccccc2[nH]1 (centres unmarked) [Compound 200] | 1.5 to 4 µM
30 | CCN(CC1CCCN(CCc2cccc(OC)c2)C1)C(=O)c1cc2cc(OC)ccc2[nH]1 (centres unmarked) [Compound 244] | > 10 µM
31 | COc1ccc(CN2CCC(CN(C)C(=O)c3cc4ccccc4[nH]3)CC2)cc1 [compound 261] | 1.5 to 4 µM
32 | CN(CC1CCNCC1)C(=O)c1cc2ccccc2[nH]1 [compound 254] | > 10 µM
33 | CCN(CC1CCCN(C2CCc3ccccc3C2)C1)C(=O)c1cc2ccccc2[nH]1 (centres unmarked) [Compound 208] | 4 to 7 µM
34 | CCN(CC1CCCN(Cc2cccc(C#N)c2)C1)C(=O)c1cc2ccccc2[nH]1 (centres unmarked) [Compound 133] | 1.5 to 4 µM
35 | CCN(CC1CCCN(Cc2ccc(Cl)cc2)C1)C(=O)c1cc2c(F)cccc2[nH]1 (centres unmarked) [Compound 165] | 1.5 to 4 µM
36 | CCN(CC1CCCN(Cc2cccc(Cl)c2)C1)C(=O)c1cc2ccccc2[nH]1 (centres unmarked) [Compound 134] | 1.5 to 4 µM
37 | CCN(CC1CCCN(Cc2ccc(Cl)cc2)C1)C(=O)c1cc2cc(Cl)ccc2[nH]1 (centres unmarked) [Compound 160] | < 1.5 µM
38 | CN(CC1CCN(Cc2ccccc2)CC1)C(=O)c1cc2ccccc2[nH]1 [compound 263] | > 10 µM
39 | COc1cccc(CCN2CCCC(CN(C(=O)c3cc4ccccc4[nH]3)C(C)C)C2)c1 (centres unmarked) [Compound 143] | < 1.5 µM
40 | COc1cccc(CC(=O)N2CCC(CNC(=O)c3cc4ccccc4[nH]3)CC2)c1 [Compound 322] | 1.5 to 4 µM
41 | CCN(CC1CCN(CC(F)(F)c2cccc(F)c2)CC1)C(=O)c1cc2ccccc2[nH]1 [Compound 410] | 1.5 to 4 µM
42 | CC(C)(Cc1ccccc1)N1CCC(CN(CC(F)(F)F)C(=O)c2cc3ccccc3[nH]2)CC1 [Compound 354] | < 1.5 µM
43 | CC(C)(Cc1ccccc1)N1CCCC(CN(CC(F)(F)F)C(=O)c2cc3ccccc3[nH]2)C1 (centres unmarked) [Compound 351] | < 1.5 µM
44 | CCN(CC1CCCN(C(C)(C)c2ccc(OC)cc2)C1)C(=O)c1cc2ccccc2[nH]1 (centres unmarked) [Compound 355] | < 1.5 µM
45 | COc1cccc(CCN2CCCC(N(C)C(=O)c3cc4ccccc4[nH]3)C2)c1 (centres unmarked) [Compound 222] | > 10 µM
46 | CCN(CC1CCCN(Cc2ccc(OC)cc2)C1)C(=O)c1cc2c(Cl)cc(Cl)cc2[nH]1 (centres unmarked) [Compound 154] | 1.5 to 4 µM
47 | O=C(NCC1CCN(Cc2ccccc2F)CC1)c1cc2ccccc2[nH]1 [compound 272] | > 10 µM

Second part, the molecule after the results:

Row | IC50 | Structure (SMILES)
48 | < 1.5 µM | O=C(c1cc2ccccc2[nH]1)N(CC1CCN(CCc2ccccc2)CC1)CC(F)(F)F [compound 305]
49 | < 1.5 µM | CCN(CC1CCCN(Cc2cccc(OC(F)F)c2)C1)C(=O)c1cc2cc(OC(F)F)ccc2[nH]1 (centres unmarked) [Compound 177]
50 | < 1.5 µM | COc1ccc(C(=O)N2CCC(CNC(=O)c3cc4ccccc4[nH]3)CC2)cc1 [Compound 321]
51 | < 1.5 µM | COc1ccc(CC(=O)N2CCC(CNC(=O)c3cc4ccccc4[nH]3)CC2)cc1 [Compound 323]
52 | < 1.5 µM | COc1ccc(CN2CCC(CN(C(=O)c3cc4ccccc4[nH]3)C(C)C)CC2)cc1 [compound 265]
53 | < 1.5 µM | CCN(CC1CCCN(C(C)(C)c2ccc(OC)cc2)C1)C(=O)c1cc2cc(OC)ccc2[nH]1 (centres unmarked) [Compound 356]
54 | < 1.5 µM | CCN(CC1CCN(C(C)(C)Cc2cccc(F)c2OC)CC1)C(=O)c1cc2ccccc2[nH]1 [Compound 364]
55 | < 1.5 µM | CCN(CC1CCNCC1)C(=O)c1cc2ccccc2[nH]1 [Compound 250]
56 | < 1.5 µM | COc1cccc(CCN2CCCC(CN(C(=O)c3cc4ccccc4[nH]3)C3CCCCC3)C2)c1 (centres unmarked) [Compound 219]
57 | < 1.5 µM | O=C(c1cc2ccccc2[nH]1)N(CC1CCN(CCc2cccc(F)c2)CC1)CC(F)(F)F [compound 306]
58 | < 1.5 µM | CCN(CC1CCN(C(C)(C)Cc2cccc(OC)c2)CC1)C(=O)c1cc2ncccc2[nH]1 [Compound 363]
59 | < 1.5 µM | CCN(CC1CCN(Cc2ccc(OC)cc2)CC1)C(=O)c1cc2ccccc2[nH]1 [compound 288]
60 | < 1.5 µM | CCN(CC1CCCN(C(C)(C)c2ccc(OC)cc2)C1)C(=O)c1cc2cc(Cl)ccc2[nH]1 (centres unmarked) [Compound 357]
61 | < 1.5 µM | COc1cccc(CC(C)(C)N2CCC(CN(CC(F)(F)F)C(=O)c3cc4ccccc4[nH]3)CC2)c1 [Compound 350]
62 | < 1.5 µM | CCN(CC1CCCN(C2CCc3ccccc32)C1)C(=O)c1cc2ccccc2[nH]1 (centres unmarked) [Compound 207]
63 | < 1.5 µM | CCN(CC1CCCN(C(=O)Cc2ccc(OC)cc2)C1)C(=O)c1cc2ccccc2[nH]1 (centres unmarked) [Compound 201]
64 | < 1.5 µM | CCN(CC1CCCN(Cc2ccc(Cl)cc2)C1)C(=O)c1cc2c(F)cc(F)cc2[nH]1 (centres unmarked) [Compound 169]
65 | < 1.5 µM | CCN(CC1CCN(C(C)(C)Cc2cc3ccccc3o2)CC1)C(=O)c1cc2ccccc2[nH]1 [Compound 339]
66 | < 1.5 µM | CCN(CC1CCN(C(C)(C)Cc2cccc(OC)c2)CC1)C(=O)c1cc2ccccc2[nH]1 [Compound 332]
67 | < 1.5 µM | CCN(CC1CCCN(Cc2ccc(OC)cc2)C1)C(=O)c1cc2cc(Cl)ccc2[nH]1 (centres unmarked) [Compound 161]
68 | < 1.5 µM | CCN(CC1CCN(CC(F)(F)c2ccccc2)CC1)C(=O)c1cc2ccccc2[nH]1 [Compound 411]
69 | < 1.5 µM | CCN(CC1CCCN(Cc2ccc(OC)cc2)C1)C(=O)c1cc2cc(F)ccc2[nH]1 (centres unmarked) [Compound 151]
70 | < 1.5 µM | CCN(CC1CCCN(Cc2ccc(Cl)cc2)C1)C(=O)c1cc2cc(F)ccc2[nH]1 (centres unmarked) [Compound 150]
71 | < 1.5 µM | COc1cccc(CCN2CCC(CN(CC(F)(F)F)C(=O)c3cc4ccccc4[nH]3)CC2)c1 [compound 307]
72 | < 1.5 µM | O=C(NCC1CCN(Cc2cccc(Cl)c2)CC1)c1cc2ccccc2[nH]1 [compound 271]

same assay, conditions: inhibition of TDP-43 aggregation; PC12 TDP-43^Q331K::eGFP, 1 hour pre-treatment, 15 μM sodium arsenite for 23 hours; 10-point dose response

Row | Structure (SMILES) | IC50
73 | CCN(CC1CCCN(C(C)(C)c2cc3ccccc3o2)C1)C(=O)c1cc2ccccc2[nH]1 (centres unmarked) [Compound 338] | < 1.5 µM
74 | CCN(CC1CCCN(C(C)(C)Cc2cccc(OC)c2)C1)C(=O)c1cc2cc(OC)ccc2[nH]1 (centres unmarked) [compound 313] | > 10 µM
